Test results reported in US12221444B2, “5,6,7,7a-tetrahydrocyclopenta[f]pyrido[1,2-h][1,7]naphthyridin-11(4bH)-one compounds and methods of use” (GLAXOSMITHKLINE INTELLECTUAL, priority 2017, dated 2025).
pEC50: −log10 of the molar value.

What was measured:
[1] = tested on: HepAD38 cells; assay: HepAD38 cells cytotoxicity assay (CellTiter-Glo Luminescent Cell Viability Assay); format: cell-based; settings: 7 days total treatment, read-out: Cell tox (EC50, ηM)
Protocol: (§1) Example 36 HepAD38 Cells—HBsAg ELISA and Cytotoxicity Assays
(§2) HepAD38 cells are maintained in collagen-coated flasks in cell culture medium (DMEM/F12 containing 10% fetal bovine serum (FBS), GlutaMax-1, penicillin/streptomycin, non-essential amino acids, Na pyruvate, 250 μg/mL geneticin, and 1 μg/mL doxycycline). Compound solutions are prepared in DMSO and compound are serially diluted for final concentrations of 4000, 1000, 250, 62.5, 15.6, 3.91, 0.977, 0.244, 0.061, and 0.015 ηM. The cells are then trypsinized and the cells are plate at 10,000 cells per well. Incubate plates are incubated at 37° C., 5% CO2 for 4 days. Media is replaced with new media with compound treatment. The plates are then incubated at 37° C., 5% CO2 for an additional 3 days for a total treatment time of 7 days. For antiviral response, HBsAg was measured using the HBsAg ELISA kit (International Immuno-diagnostics) with instructions provided. 100 uL of cell media samples was used for ELISA. The absorbance was read on the Spectramax® 384 plate reader (Molecular Devices) at 450 nm. For cell toxicity, the cells were used for CellTiter-Glo® Luminescent Cell Viability Assay reagent (Promega). The luminescence was read on Envision Multilabel Reader (Perkin Elmer). The data was analyzed compared to the DMSO control. % inhibition=(1−(unknown/high control))*100
(§3) The average % inhibition values from duplicate assay plates are then plotted in GraphPad Prism to determine one IC value: Four-parameter logistic curve with equation Y=Bottom+(Top-Bottom)/(1+10^((Log IC50−X)*HillSlope)) pIC50=[…]

[2] = tested on: HBs antigens (HBsAg); assay: HepAD38 cells HBsAg ELISA; format: cell-based, Hepatitis B virus; settings: read-out: HepAD38, HBsAg (EC50), 7 days total treatment, HBsAg ELISA of cell media
Protocol: as §1, §2, §3

[3] = HepAD38 cells cytotoxicity assay (CellTiter-Glo Luminescent Cell Viability Assay); format: cell-based; settings: human, 7 days total treatment, read-out: Cell tox (EC50, ηM)
Protocol: as §1, §2, §3

| SMILES | pEC50 [1] | pEC50 [2] | EC50 at 7 days [3] |
| --- | --- | --- | --- |
| CC(C)(C)C1Cc2cc(OCC3CC3)c(Cl)nc2-c2cc(=O)c(C(=O)O)cn21 (single isomer, unassigned; isomer 1) [Example 30-A, 6-(tert-Butyl)-2-chloro-3-(cyclopropylmethoxy)-10-oxo-6,10-dihydro-5H-pyrido[1,2-h][1,7]naphthyridine-9-carboxylic acid (isomer 1)] | < 5.40 | > 9.00 | – |
| CC(C)C1(C)Cc2cc(OCC3CC3)c(Cl)nc2-c2cc(=O)c(C(=O)O)cn21 (single isomer, unassigned; isomer-2) [Example 27, (2-Chloro-3-(cyclopropylmethoxy)-6-isopropyl-6-methyl-10-oxo-5,10-dihydro-6H-pyrido[1,2-h][1,7]naphthyridine-9-carboxylic acid-Isomer-2] | < 5.40 | < 7.00 | – |
| COCCCOc1cc2c(nc1C1CC1)-c1cc(=O)c(C(=O)O)cn1C(C)(C(C)C)C2 (single isomer, unassigned; isomer-2) [Example 29, 2-Cyclopropyl-6-isopropyl-3-(3-methoxypropoxy)-6-methyl-10-oxo-5,10-dihydro-6H-pyrido[1,2-h][1,7]naphthyridine-9-carboxylic acid-Isomer-2] | < 5.40 | 7.00 to 8.00 | – |
| C=C(C)c1nc2c(cc1OCCCOC)C[C@@H](C(C)(C)C)n1cc(C(=O)O)c(=O)cc1-2 [Example 21, (S)-6-(tert-Butyl)-3-(3-methoxypropoxy)-10-oxo-2-(prop-1-en-2-yl)-6,10-dihydro-5H-pyrido[1,2-h][1,7]naphthyridine-9-carboxylic acid] | – | > 9.00 | > 4000 nM |
| COCCCOc1cc2c(nc1C(C)C)-c1cc(=O)c(C(=O)O)cn1[C@H](C(C)(C)C)C2 [Example 22, (S)-6-(tert-Butyl)-2-isopropyl-3-(3-methoxypropoxy)-10-oxo-6,10-dihydro-5H-pyrido[1,2-h][1,7]naphthyridine-9-carboxylic acid] | – | > 9.00 | > 4000 nM |
| COCCCOc1cc2c(nc1Cl)-c1cc(=O)c(C(=O)O)c(C)n1[C@H](C(C)(C)C)C2 [Example 23, (S)-6-(tert-Butyl)-2-chloro-3-(3-methoxypropoxy)-8-methyl-10-oxo-6,10-dihydro-5H-pyrido[1,2-h][1,7]naphthyridine-9-carboxylic acid] | – | < 7.00 | > 4000 nM |
| COCCCOc1cc2c(nc1CO)-c1cc(=O)c(C(=O)O)cn1[C@H](C(C)(C)C)C2 [Example 24, (S)-6-(tert-Butyl)-2-(hydroxymethyl)-3-(3-methoxypropoxy)-10-oxo-5,10-dihydro-6H-pyrido[1,2-h][1,7]naphthyridine-9-carboxylic acid] | – | 8.00 to 9.00 | > 4000 nM |
| COCCCOc1cc2c(nc1C1CC1)-c1c(O)c(=O)c(C(=O)O)cn1[C@H](C(C)(C)C)C2 [Example 25, (S)-6-(tert-Butyl)-2-cyclopropyl-11-hydroxy-3-(3-methoxypropoxy)-10-oxo-5,10-dihydro-6H-pyrido[1,2-h][1,7]naphthyridine-9-carboxylic acid] | – | > 9.00 | > 4000 nM |
| O=C(O)c1cn2c(cc1=O)-c1nc(Cl)c(OCC3CC3)cc1CC21CCC1 [Example 31, 2′-Chloro-3′-(cyclopropylmethoxy)-10′-oxo-5′,10′-dihydrospiro[cyclobutane-1,6′-pyrido[1,2-h][1,7]naphthyridine]-9′-carboxylic acid] | – | 8.00 to 9.00 | > 4000 nM |
| COc1cc2c(nc1OC)-c1cc(=O)c(C(=O)O)cn1C1(CCC1)C2 [Example 32, 2′,3′-Dimethoxy-10′-oxo-5′,10′-dihydrospiro[cyclobutane-1,6′-pyrido[1,2-h][1,7]naphthyridine]-9′-carboxylic acid] | – | 7.00 to 8.00 | > 4000 nM |
| Cc1cc2c(nc1C)CC(C(C)C)n1cc(C(=O)O)c(=O)cc1-2 (stereo not shown) [Example 33, 6-Isopropyl-2,3-dimethyl-10-oxo-5,10-dihydro-6H-pyrido[2,1-f][1,6]naphthyridine-9-carboxylic acid] | – | < 7.00 | > 4000 nM |
